This experiment relates to 556581-035-R-J1-PDC spheroids with HUVEC/MSC, viability. Put plainly: Anticancer human tumor 556581-035-R-J1-PDC patient-derived ovarian carcinoma cell line growth inhibition [IpAb]. As to conditions: for viability, T/C: stronger effect = lower value. In short, it runs like this:
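Combinations with ipatasertib or abemaciclib were tested on tumour spheroids holding HUVEC (25%) and MSC (15%) alongside 60% malignant cells. Top concentration was at or near clinical Cmax (10 microM if undefined), descending in half-log steps.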

Setting [1] is: curve of first compound, second compound 0.1 µM.
Setting [2] is: curve of first compound, second compound 0.316 µM.
Setting [3] is: curve of first compound, second compound 1 µM.
Setting [4] is: curve of first compound, second compound 3.16 µM.
Setting [5] is: curve of first compound, second compound 10 µM.
[6] abbreviates: second compound 0.1 µM, first compound 0.0316 µM.
[7] abbreviates: second compound 0.1 µM, first compound 0.1 µM.
The mark [8] stands for this setting: second compound 0.1 µM, first compound 0.316 µM.
The mark [9] stands for this setting: second compound 0.1 µM, first compound 1 µM.
Where [10] appears, read: second compound 0.1 µM, first compound 3.16 µM.
Setting [11] is: second compound 0.1 µM, first compound 10 µM.
[12] abbreviates: second compound 0.316 µM, first compound 0.0316 µM.
Setting [13] is: second compound 0.316 µM, first compound 0.1 µM.
The mark [14] stands for this setting: second compound 0.316 µM, first compound 0.316 µM.
The mark [15] stands for this setting: second compound 0.316 µM, first compound 1 µM.
[16] abbreviates: second compound 0.316 µM, first compound 3.16 µM.
The mark [17] stands for this setting: second compound 0.316 µM, first compound 10 µM.
[18] abbreviates: second compound 1 µM, first compound 0.0316 µM.
[19] abbreviates: second compound 1 µM, first compound 0.1 µM.
The mark [20] stands for this setting: second compound 1 µM, first compound 0.316 µM.
Setting [21] is: second compound 1 µM, first compound 1 µM.
Where [22] appears, read: second compound 1 µM, first compound 3.16 µM.
Where [23] appears, read: second compound 1 µM, first compound 10 µM.
[24] abbreviates: second compound 3.16 µM, first compound 0.0316 µM.
[25] abbreviates: second compound 3.16 µM, first compound 0.1 µM.
[26] abbreviates: second compound 3.16 µM, first compound 0.316 µM.
Where [27] appears, read: second compound 3.16 µM, first compound 1 µM.
[28] abbreviates: second compound 3.16 µM, first compound 3.16 µM.
Setting [29] is: second compound 3.16 µM, first compound 10 µM.
The mark [30] stands for this setting: second compound 10 µM, first compound 0.0316 µM.
[31] abbreviates: second compound 10 µM, first compound 0.1 µM.
The mark [32] stands for this setting: second compound 10 µM, first compound 0.316 µM.
[33] abbreviates: second compound 10 µM, first compound 1 µM.
Setting [34] is: second compound 10 µM, first compound 3.16 µM.
Where [35] appears, read: second compound 10 µM, first compound 10 µM.

Values joined by “and” are separate entries in the source; they are usually repeats but may differ in a detail not shown here. Equal values may be shown once. Where only a bound is given, the exact number is not on record here.
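Further: spheroids exposed to compounds for 7 days before readout.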

With `CC(=O)c1c(C)c2cnc(Nc3ccc(N4CCNCC4)cn3)nc2n(C2CCCC2)c1=O` + CCN1CCN(Cc2ccc(Nc3ncc(F)c(-c4cc(F)c5nc(C)n(C(C)C)c5c4)n3)nc2)CC1, the 50% inhibitory concentration (IC50) (as a rule, the point on the concentration scale where inhibition reaches its midpoint) by setting is: (curve of first compound, second compound 0.01 µM) greater than 300 nM; (curve of first compound, second compound 0.0316 µM) greater than 300 nM; under setting [1], greater than 300 nM; under setting [2], greater than 300 nM; under setting [3], greater than 300 nM. Moreover, the viability, T/C (in general, the ratio of treated to control) by setting is: (second compound 0.01 µM, first compound 0.000949 µM) 99.9%; (second compound 0.01 µM, first compound 0.003 µM) 106%; (second compound 0.01 µM, first compound 0.00949 µM) 117%; (second compound 0.01 µM, first compound 0.03 µM) 100%; (second compound 0.01 µM, first compound 0.0949 µM) 82.7%; (second compound 0.01 µM, first compound 0.3 µM) 88.3%. Further, the viability, T/C (second compound 0.0316 µM, first compound 0.000949 µM) is 76.2%; the viability, T/C (second compound 0.0316 µM, first compound 0.003 µM) is 93.2%; the viability, T/C (second compound 0.0316 µM, first compound 0.00949 µM) is 101%; the viability, T/C (second compound 0.0316 µM, first compound 0.03 µM) is 91.3%; the viability, T/C (second compound 0.0316 µM, first compound 0.0949 µM) was 92.2%; the viability, T/C (second compound 0.0316 µM, first compound 0.3 µM) was 76.1%. For the same molecule, the viability, T/C reads like this: (second compound 0.1 µM, first compound 0.000949 µM) 81.7%; (second compound 0.1 µM, first compound 0.003 µM) 84.4%; (second compound 0.1 µM, first compound 0.00949 µM) 82%; (second compound 0.1 µM, first compound 0.03 µM) 87.3%; (second compound 0.1 µM, first compound 0.0949 µM) 80.2%; (second compound 0.1 µM, first compound 0.3 µM) 89.1%. Also, the viability, T/C is 89.5% (second compound 0.316 µM, first compound 0.000949 µM); 84.4% (second compound 0.316 µM, first compound 0.003 µM); 94.6% (second compound 0.316 µM, first compound 0.00949 µM); 68.8% (second compound 0.316 µM, first compound 0.03 µM); 81.3% (second compound 0.316 µM, first compound 0.0949 µM); 64% (second compound 0.316 µM, first compound 0.3 µM). The viability, T/C is, setting by setting: (second compound 1 µM, first compound 0.000949 µM) 49.9%; (second compound 1 µM, first compound 0.003 µM) 57.8%; (second compound 1 µM, first compound 0.00949 µM) 46.6%; (second compound 1 µM, first compound 0.03 µM) 55%; (second compound 1 µM, first compound 0.0949 µM) 49.8%; (second compound 1 µM, first compound 0.3 µM) 54%.

With `C=CCn1c(=O)c2cnc(Nc3ccc(N4CCN(C)CC4)cc3)nc2n1-c1cccc(C(C)(C)O)n1` + CC(C)NCC(C(=O)N1CCN(c2ncnc3c2C(C)CC3O)CC1)c1ccc(Cl)cc1, the IC50 was 217 nM under setting [1]; 186 nM under setting [2]; 145 nM under setting [3]; 71 nM under setting [4]; less than 31.6 nM under setting [5]. Further, the viability, T/C reads like this: under setting [6], 106%; under setting [7], 82.7%; under setting [8], 27.3%; under setting [9], 31.7%; under setting [10], 42.9%; under setting [11], 34.8%. Besides, the viability, T/C under setting [12] was 94.4%; the viability, T/C under setting [13] is 75.8%; the viability, T/C under setting [14] was 22.9%; the viability, T/C under setting [15] was 26.4%; the viability, T/C under setting [16] was 35.1%; the viability, T/C under setting [17] was 27.5%. Also, the viability, T/C reads like this: under setting [18], 64.2%; under setting [19], 62.7%; under setting [20], 18.9%; under setting [21], 22%; under setting [22], 27.4%; under setting [23], 26.4%. The viability, T/C runs as follows: under setting [24], 60.8%; under setting [25], 45.5%; under setting [26], 17.2%; under setting [27], 13.2%; under setting [28], 23.2%; under setting [29], 22.8%. In addition, the viability, T/C is 43.3% under setting [30]; 35.9% under setting [31]; 14.8% under setting [32]; 11.6% under setting [33]; 18.2% under setting [34]; 19.7% under setting [35].

Regarding `Cn1cnc2c(F)c(Nc3ccc(Br)cc3Cl)c(C(=O)NOCCO)cc21`, the viability, T/C was 94.9% and 121% (compound 0.00949 µM); 95% and 99.7% (compound 0.03 µM); 92.9% and 109% (compound 0.0949 µM); 74.6% and 91.1% (compound 0.3 µM); 45.2% and 43% (compound 0.949 µM); 14.4% and 14% (compound 3 µM). In addition, for the setting “curve of compound”, the half-inhibitory concentration (IC50) was 779 nM and 805 nM.

In the case of `C=CC(=O)N1CCN(c2nc(=O)n(-c3c(C)ccnc3C(C)C)c3nc(-c4c(O)cccc4F)c(F)cc23)C(C)C1` (stereo unspecified), the viability, T/C is, setting by setting: (compound 0.0316 µM) 107% and 97.3%; (compound 0.1 µM) 97.5% and 113%; (compound 0.316 µM) 113% and 118%; (compound 1 µM) 106% and 105%; (compound 3.16 µM) 102% and 126%; (compound 10 µM) 31.9% and 31.5%. Also, the IC50 (curve of compound) was 7440 nM and 7680 nM.

With `CC(C)NCC(C(=O)N1CCN(c2ncnc3c2C(C)CC3O)CC1)c1ccc(Cl)cc1` (stereo unspecified), the viability, T/C is, setting by setting: (compound 3.16 µM) 49% [middle of 13 runs]; (compound 10 µM) 45.5% [middle of 12 runs].

For the molecule `C=CC(=O)N1CCN(c2nc(=O)n(-c3c(C)ccnc3C(C)C)c3nc(-c4c(O)cccc4F)c(F)cc23)C(C)C1` (stereo unspecified) + CC(C)NCC(C(=O)N1CCN(c2ncnc3c2C(C)CC3O)CC1)c1ccc(Cl)cc1, the IC50 under setting [1] came out at 5380 nM; the IC50 under setting [2] was 6530 nM; the IC50 under setting [3] is 4020 nM; the IC50 under setting [4] turned out to be 1790 nM; the IC50 under setting [5] is less than 31.6 nM. In addition, the viability, T/C under setting [6] is 99.9%; the viability, T/C under setting [7] was 108%; the viability, T/C under setting [8] was 103%; the viability, T/C under setting [9] was 111%; the viability, T/C under setting [10] was 68.6%; the viability, T/C under setting [11] was 28.3%. Further, the viability, T/C reads like this: under setting [12], 79.8%; under setting [13], 79.1%; under setting [14], 74%; under setting [15], 85.1%; under setting [16], 73.4%; under setting [17], 35.4%. Besides, the viability, T/C under setting [18] was 74.3%; the viability, T/C under setting [19] is 65.6%; the viability, T/C under setting [20] is 59.8%; the viability, T/C under setting [21] was 64%; the viability, T/C under setting [22] was 57%; the viability, T/C under setting [23] was 28.4%. Also, the viability, T/C was 54.5% under setting [24]; 54.5% under setting [25]; 52.6% under setting [26]; 47.9% under setting [27]; 48.9% under setting [28]; 21.8% under setting [29]. Further, the viability, T/C by setting is: under setting [30], 44.6%; under setting [31], 48.2%; under setting [32], 45.5%; under setting [33], 48.5%; under setting [34], 34.9%; under setting [35], 13.5%.

Source of the values: PubChem BioAssay AID2060338 (Molecular Pharmacology Branch, DTP, NCI, 2025).
